Laboratory results as given in ChEMBL document CHEMBL1201862, “PubChem BioAssay data set” (2004).
Active and inactive are the calls of the source. No stated cut-off is given here; in the data, actives have a measured IC50 and inactives only a lower limit.

Target: Envelope glycoprotein gp160 (Human immunodeficiency virus 1, UniProt Q6QLK5)
Test: inhibitors of HIV fusion peptide binding, primary screen, biochemical, uHTS, fluorescence dequenching (AID 1986)

Sequence of Envelope glycoprotein gp160 (Q6QLK5 whole entry, the tested form may be a part): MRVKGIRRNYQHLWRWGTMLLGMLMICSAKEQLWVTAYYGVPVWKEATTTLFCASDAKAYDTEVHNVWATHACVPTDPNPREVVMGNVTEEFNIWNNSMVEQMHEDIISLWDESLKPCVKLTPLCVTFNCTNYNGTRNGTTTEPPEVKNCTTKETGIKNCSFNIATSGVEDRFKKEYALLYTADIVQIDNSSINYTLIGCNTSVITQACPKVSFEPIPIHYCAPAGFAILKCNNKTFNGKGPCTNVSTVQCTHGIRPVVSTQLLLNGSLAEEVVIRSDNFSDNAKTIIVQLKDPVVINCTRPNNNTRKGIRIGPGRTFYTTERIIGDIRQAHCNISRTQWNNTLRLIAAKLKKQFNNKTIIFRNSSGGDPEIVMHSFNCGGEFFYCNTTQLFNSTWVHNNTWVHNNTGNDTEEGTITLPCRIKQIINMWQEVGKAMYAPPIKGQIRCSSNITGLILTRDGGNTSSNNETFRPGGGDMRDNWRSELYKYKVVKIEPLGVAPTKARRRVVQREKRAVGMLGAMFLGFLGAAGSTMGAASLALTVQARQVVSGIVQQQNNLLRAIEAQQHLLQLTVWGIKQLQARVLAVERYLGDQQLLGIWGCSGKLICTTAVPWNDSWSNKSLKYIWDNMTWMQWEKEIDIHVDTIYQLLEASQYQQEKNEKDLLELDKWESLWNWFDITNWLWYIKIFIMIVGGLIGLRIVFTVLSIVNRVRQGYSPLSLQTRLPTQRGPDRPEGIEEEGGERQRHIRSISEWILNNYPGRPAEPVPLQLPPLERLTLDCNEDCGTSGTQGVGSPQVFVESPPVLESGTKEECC

| Structure (SMILES) | IC50 |
| --- | --- |
| N#Cc1c(-c2cccs2)nc(SCc2ccc(Cl)cc2)[nH]c1=O | 11.1 µM (active) |
| O=C(O)CSc1cc(C(=O)c2cc(F)ccc2O)cn2c(=O)c3c(-c4ccccc4)csc3nc12 | 14.9 µM (active) |
